Values of other authors in patent publication US9492404B2, “Compositions and methods for treatment of taupathy” (Revalesio Corporation, priority 2010, dated 2016).

Test system: primary progressive MS
Conditions: 943 patients with primary progressive MS

For Glatiramer acetate, the “progression of disability and the disease” value is listed as “failed to halt”.
